Assay results taken from patent publication US20150191469A1, “COMPOUNDS AND METHODS FOR TREATING HIV” (priority 2012, published 2015).

These compounds were tested on HIV (assay: MT4 assay: antiviral HIV activity (cell protection, cell titer glo readout at 96 hours)). Conditions: Human immunodeficiency virus 1, MT4, 96 h, MT4 cells, cell titer glo readout at 96 hours, 10 point dose response; read-out: HIV MT4 Assay IC50.
Format: cell-based
Outline: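 MT-4 cells infected with HIV, with inhibition readout by CellTiter-Glo luminescence at 96 h relative to no-compound control. Cytotoxicity measured in parallel under the same conditions. IC50 from a 10-point, 3-4-fold dilution series spanning >1000-fold, fitted with a four-parameter logistic equation.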

First: Cc1nc2c(cc(-c3nnc(N4CCN(CC5CCOCC5)CC4)o3)n2C)c(-c2cc(F)c3c(c2C)CCCO3)c1[C@H](OC(C)(C)C)C(=O)O [Example 322]
Second: Cc1nc2c(cc(-c3nnc(N4CCCN(C5COC5)CC4)o3)n2C)c(-c2cc(F)c3c(c2C)CCCO3)c1[C@H](OC(C)(C)C)C(=O)O [Example 302]
The IC50 of the first is 9.6-fold lower: 4.6 nM for the first, 44.2 nM for the second.

First: Cc1nc2c(cc(-c3ccnc(-c4ccc5c(c4)nnn5C)c3)n2C)c(-c2cc(F)c3c(c2C)CCCO3)c1[C@H](OC(C)(C)C)C(=O)O (atropisomer, axis not shown) [Example 60]
Second: Cc1nc2c(cc(-c3ccnc(-c4cccc5cnn(C)c45)c3)n2C)c(-c2cc(F)c3c(c2C)CCCO3)c1[C@H](OC(C)(C)C)C(=O)O (atropisomer, axis not shown) [Example 59]
The IC50 of the first is 4.3-fold lower: 3.7 nM for the first, 16 nM for the second. The first is the more potent here.

First: Cc1nc2c(cc(C(=O)N3CCCCC3)n2C)c(-c2cc(F)c3c(c2C)CCCO3)c1[C@H](OC(C)(C)C)C(=O)O [Example 251]
Second: CNC(=O)c1cc2c(-c3cc(F)c4c(c3C)CCCO4)c([C@H](OC(C)(C)C)C(=O)O)c(C)nc2n1C [Example 228]
The IC50 of the first is 4.8-fold lower: 28.3 nM for the first, 136 nM for the second.

Going from Cc1nc2c(cc(C(=O)N3[C@@H]4CC[C@H]3CC(N3CCOCC3)C4)n2C)c(-c2cc(F)c3c(c2C)CCCO3)c1[C@H](OC(C)(C)C)C(=O)O (some centres unmarked) [Example 222] to Cc1nc2c(cc(-c3ccnc(N4CC(N5CCOCC5)C4)c3)n2C)c(-c2cc(F)c3c(c2C)CCCO3)c1[C@H](OC(C)(C)C)C(=O)O [Example 2, (2S)-2-(tert-butoxy)-2-[4-(8-fluoro-5-methyl-3,4-dihydro-2H-1-benzopyran-6-yl)-1,6-dimethyl-2-{2-[3-(morpholin-4-yl)azetidin-1-yl]pyridin-4-yl}-1H-pyrrolo[2,3-b]pyridin-5-yl]acetic acid], the IC50 falls from 376 nM to 15.6 nM (24-fold). The second is the more potent here.

Cc1nc2c(cc(-c3ccnc(N4CCCN(S(C)(=O)=O)CC4)c3)n2C)c(-c2cc(F)c3c(c2C)CCCO3)c1[C@H](OC(C)(C)C)C(=O)O (atropisomer, axis not shown) [Example 97] and Cc1nc2c(cc(-c3ccnc(N4CCN(S(C)(=O)=O)CC4)c3)n2C)c(-c2cc(F)c3c(c2C)CCCO3)c1[C@H](OC(C)(C)C)C(=O)O (atropisomer, axis not shown) [Example 92] are within 1.5-fold of each other in IC50: 16.5 nM for the first, 19.6 nM for the second.

First: Cc1nc2c(cc(-c3ccnc(N4CCc5cc(-n6c(C)ccc6C)ccc5C4)c3)n2C)c(-c2cc(F)c3c(c2C)CCCO3)c1[C@H](OC(C)(C)C)C(=O)O (atropisomer, axis not shown) [Example 106]
Second: Cc1nc2c(cc(-c3ccnc(-c4ccc5c(c4)CCN(C4COC4)C5)c3)n2C)c(-c2cc(F)c3c(c2C)CCCO3)c1[C@H](OC(C)(C)C)C(=O)O (atropisomer, axis not shown) [Example 47]
The IC50 of the first is 8-fold higher: 45 nM for the first, 5.6 nM for the second.

COC1CCN(c2nsc(-c3cc4c(-c5cc(F)c6c(c5C)CCCO6)c([C@H](OC(C)(C)C)C(=O)O)c(C)nc4n3C)n2)CC1 [Example 395] and Cc1nc2c(cc(-c3nc(N4CCC4)ns3)n2C)c(-c2cc(F)c3c(c2C)CCCO3)c1[C@H](OC(C)(C)C)C(=O)O [Example 403] are within 1.5-fold of each other in IC50: 13.1 nM for the first, 12.9 nM for the second.

COC1CCN(c2nnc(-c3cc4c(-c5cc(F)c6c(c5C)CCCO6)c([C@H](OC(C)(C)C)C(=O)O)c(C)nc4n3C)o2)CC1 [Example 303] and Cc1nc2c(cc(-c3nnc(N4CC[C@@H](F)C4)o3)n2C)c(-c2cc(F)c3c(c2C)CCCO3)c1[C@H](OC(C)(C)C)C(=O)O [Example 331] are within 1.5-fold of each other in IC50: 3.9 nM for the first, 4.3 nM for the second.

Going from Cc1nc2c(cc(-c3ccnc(N4CCN(C)CC4)c3)n2C)c(-c2cc(F)c3c(c2C)CCCO3)c1[C@H](OC(C)(C)C)C(=O)O (atropisomer, axis not shown) [Example 10, (2S)-2-(tert-butoxy)-2-[4-(8-fluoro-5-methyl-3,4-dihydro-2H-1-benzopyran-6-yl)-1,6-dimethyl-2-[2-(4-methylpiperazin-1-yl)pyridin-4-yl]-1H-pyrrolo[2,3-b]pyridin-5-yl]acetic acid] to Cc1nc2c(cc(-c3ccnc(N4CCN(c5ccccc5)CC4)c3)n2C)c(-c2cc(F)c3c(c2C)CCCO3)c1[C@H](OC(C)(C)C)C(=O)O (atropisomer, axis not shown) [Example 83], the IC50 rises from 30.3 nM to 52.5 nM (1.7-fold). The first is the more potent here.

Cc1nc2c(cc(C(=O)NCCS(C)(=O)=O)n2C)c(-c2cc(F)c3c(c2C)CCCO3)c1[C@H](OC(C)(C)C)C(=O)O [Example 236] and Cc1nc2c(cc(C(=O)NCCO)n2C)c(-c2cc(F)c3c(c2C)CCCO3)c1[C@H](OC(C)(C)C)C(=O)O [Example 238] are within 1.5-fold of each other in IC50: 4140 nM for the first, 3860 nM for the second.

Going from Cc1nc2c(cc(-c3ccnc(-c4ccc5c(c4)OCCO5)c3)n2C)c(-c2cc(F)c3c(c2C)CCCO3)c1[C@H](OC(C)(C)C)C(=O)O [Example 78] to Cc1nc2c(cc(-c3ccc4c(c3)N(C)CCO4)n2C)c(-c2cc(F)c3c(c2C)CCCO3)c1[C@H](OC(C)(C)C)C(=O)O (atropisomer, axis not shown) [Example 135], the IC50 rises from 5.8 nM to 126 nM (22-fold). The first is the more potent here.

Cc1nc2c(cc(C(=O)NCCN3CCCC3=O)n2C)c(-c2cc(F)c3c(c2C)CCCO3)c1[C@H](OC(C)(C)C)C(=O)O [Example 248] and Cc1nc2c(cc(/C=C/C(=O)NCCN3CCCC3=O)n2C)c(-c2cc(F)c3c(c2C)CCCO3)c1[C@H](OC(C)(C)C)C(=O)O [Example 419] are within 1.5-fold of each other in IC50: 3050 nM for the first, 3240 nM for the second.

Compared with Cc1nc2c(cc(C(=O)NCCc3ccccc3)n2C)c(-c2cc(F)c3c(c2C)CCCO3)c1[C@H](OC(C)(C)C)C(=O)O [Example 212], COCCNC(=O)c1cc2c(-c3cc(F)c4c(c3C)CCCO4)c([C@H](OC(C)(C)C)C(=O)O)c(C)nc2n1C [Example 231] is 1.7-fold higher in IC50: 28.8 nM for the first, 48.7 nM for the second.

Cc1nc2c(cc(-c3nc(N4CCN(S(=O)(=O)N5CCOCC5)CC4)ns3)n2C)c(-c2cc(F)c3c(c2C)CCCO3)c1[C@H](OC(C)(C)C)C(=O)O [Example 392] and Cc1nc2c(cc(-c3nc(N4CCN(C(C)C)CC4)ns3)n2C)c(-c2cc(F)c3c(c2C)CCCO3)c1[C@H](OC(C)(C)C)C(=O)O [Example 400] are within 1.5-fold of each other in IC50: 4.9 nM for the first, 6.3 nM for the second.

Compared with COc1ccc([C@@H](C)NC(=O)c2cc3c(-c4cc(F)c5c(c4C)CCCO5)c([C@H](OC(C)(C)C)C(=O)O)c(C)nc3n2C)cc1 [Example 216], COc1ccc(CNC(=O)c2cc3c(-c4cc(F)c5c(c4C)CCCO5)c([C@H](OC(C)(C)C)C(=O)O)c(C)nc3n2C)cc1 [Example 233] is 11-fold lower in IC50: 41.3 nM for the first, 3.6 nM for the second. The second is the more potent here.

First: Cc1nc2c(cc(-c3nc(N4CCCCC4)ns3)n2C)c(-c2cc(F)c3c(c2C)CCCO3)c1[C@H](OC(C)(C)C)C(=O)O [Example 368]
Second: Cc1nc2c(cc(-c3nsc(N4CCC(C)CC4)n3)n2C)c(-c2cc(F)c3c(c2C)CCCO3)c1[C@H](OC(C)(C)C)C(=O)O [Example 374]
The IC50 of the first is 3.7-fold higher: 39.5 nM for the first, 10.8 nM for the second.

First: Cc1nc2c(cc(C(=O)N3CCC(c4ccncc4)CC3)n2C)c(-c2cc(F)c3c(c2C)CCCO3)c1[C@H](OC(C)(C)C)C(=O)O [Example 171]
Second: Cc1nc2c(cc(C(=O)N3CCN(c4ccncc4)CC3)n2C)c(-c2cc(F)c3c(c2C)CCCO3)c1[C@H](OC(C)(C)C)C(=O)O [Example 169]
The IC50 of the first is 38-fold lower: 32.6 nM for the first, 1240 nM for the second.

Compared with Cc1nc2c(cc(C(=O)NCC3CC3)n2C)c(-c2cc(F)c3c(c2C)CCCO3)c1[C@H](OC(C)(C)C)C(=O)O [Example 229], Cc1nc2c(cc(C(=O)N(CCC(C)C)CCC(C)C)n2C)c(-c2cc(F)c3c(c2C)CCCO3)c1[C@H](OC(C)(C)C)C(=O)O [Example 202] is 7.6-fold higher in IC50: 12.2 nM for the first, 92.8 nM for the second.

First: Cc1nc2c(cc(-c3nnc(N4C[C@@H](C)O[C@@H](C)C4)o3)n2C)c(-c2cc(F)c3c(c2C)CCCO3)c1[C@H](OC(C)(C)C)C(=O)O (racemic) [Example 338]
Second: Cc1nc2c(cc(-c3nnc(N4CCC[C@@H]4C)o3)n2C)c(-c2cc(F)c3c(c2C)CCCO3)c1[C@H](OC(C)(C)C)C(=O)O [Example 324]
The IC50 of the first is 2.5-fold lower: 1.6 nM for the first, 4 nM for the second.

Going from Cc1nc2c(cc(-c3ccnc(-c4ccc5c(cnn5C)c4)c3)n2C)c(C2=CCCCC2)c1[C@H](OC(C)(C)C)C(=O)O [Example 425] to Cc1nc2c(cc(-c3ccnc(-c4cnn(C5CCOCC5)c4)c3)n2C)c(-c2cc(F)c3c(c2C)CCCO3)c1[C@H](OC(C)(C)C)C(=O)O (atropisomer, axis not shown) [Example 9, (2S)-2-(tert-butoxy)-2-[4-(8-fluoro-5-methyl-3,4-dihydro-2H-1-benzopyran-6-yl)-1,6-dimethyl-2-{2-[1-(oxan-4-yl)-1H-pyrazol-4-yl]pyridin-4-yl}-1H-pyrrolo[2,3-b]pyridin-5-yl]acetic acid], the IC50 falls from 34.5 nM to 16.2 nM (2.1-fold). The second is the more potent here.

First: Cc1nc2c(cc(C(=O)N3CCC(Oc4ccc(C#N)cc4)CC3)n2C)c(-c2cc(F)c3c(c2C)CCCO3)c1[C@H](OC(C)(C)C)C(=O)O [Example 164]
Second: Cc1nc2c(cc(C(=O)N3CCN(CC(=O)N(C)c4ccccc4)CC3)n2C)c(-c2cc(F)c3c(c2C)CCCO3)c1[C@H](OC(C)(C)C)C(=O)O [Example 219]
The IC50 of the first is 19-fold lower: 42.2 nM for the first, 807 nM for the second. The first is the more potent here.

Cc1nc2c(cc(-c3ccnc(N4CCN(C5CCOCC5)CC4)n3)n2C)c(-c2cc(F)c3c(c2C)CCCO3)c1[C@H](OC(C)(C)C)C(=O)O [Example 363] and Cc1nc2c(cc(-c3nnc(N4CCC(n5cccn5)CC4)o3)n2C)c(-c2cc(F)c3c(c2C)CCCO3)c1[C@H](OC(C)(C)C)C(=O)O [Example 327] are within 1.5-fold of each other in IC50: 9.9 nM for the first, 9.4 nM for the second.

Going from Cc1nc2c(cc(-c3ccnc(C(=O)NCc4c[nH]cn4)c3)n2C)c(-c2cc(F)c3c(c2C)CCCO3)c1[C@H](OC(C)(C)C)C(=O)O (atropisomer, axis not shown) [Example 150] to Cc1nc2c(cc(CNC(=O)c3ccc4c(cnn4C)c3)n2C)c(-c2cc(F)c3c(c2C)CCCO3)c1[C@H](OC(C)(C)C)C(=O)O (atropisomer, axis not shown; (M)) [Example 412, (2S)(M)-2-(tert-butoxy)-2-(-4-(8-fluoro-5-methylchroman-6-yl)-1,6-dimethyl-2-((1-methyl-1H-indazole-5-carboxamido)methyl)-1H-pyrrolo[2,3-b]pyridin-5-yl)acetic acid], the IC50 falls from 9360 nM to 43.1 nM (220-fold). The second is the more potent here.

In the case of Cc1nc2c(cc(-c3ccnc(N4CCCN(C5COC5)CC4)c3)n2C)c(-c2ccc(Cl)cc2)c1[C@H](OC(C)(C)C)C(=O)O [Example 431], the IC50 is reported as 143 nM.
